Experimental data reported in publication PMC3328499 (PLoS ONE, 2012).

How the values were obtained:
Nd-MalFGK2 [1] = biological target: T1, Nd-MalFGK2 (Escherichia coli, UniProt P02916+P68183+P68187); experiment: Native-PAGE (CN-PAGE) binding of [125I]-MalE to Nd-MalFGK2; design: species or system E. coli; details: maltose 1 mM, AMP-PNP or ATP plus vanadate
T1 construct: made in house; host or cells: E. coli BL21
Description: After incubation (10 min, 37°C), samples were analyzed by CN-PAGE followed by Coomassie blue staining (bottom part) and autoradiography (upper part). […] After incubation (10 min, 37°C), samples were analyzed by CN-PAGE followed by Coomassie blue staining (bottom part) then autoradiography (upper part). […] After incubation (10 min, 37°C), samples were analyzed by CN-PAGE and autoradiography. […] The position MalE-31 and MalF-177 are indicated in red. […] When the data were fitted to one-site binding equation, the dissociation constant in the presence of AMP-PNP was ∼79 nM.
(§1) Samples were analyzed by CN-PAGE and autoradiography. […] After incubation (10 min, 37°C), samples were analyzed by CN-PAGE and autoradiography. […] The reported values were derived from 3 independent experiments.
(§2) The MalFGK2 ATPase activity was determined by monitoring the release of inorganic phosphate using photo-colorimetric method. Linear gradient blue-native (BN) and colorless-native (CN) gel electrophoresis was performed as described. Sucrose gradient analysis was performed as described. MalE was iodinated using the Iodogen reagent (Pierce-Thermo Scientific). The specific activity of [^125I]-MalE was ∼2×10^5 c.p.m./μg.

Nd-MalFGK2 [2] = biological target: T1, Nd-MalFGK2; experiment: ATPase activity of MalFGK2 in nanodiscs; assay type: biochemical, E. coli
Description: Figure 1 ATPase activity of the MalFGK2 complex in nanodiscs. (A) The MalFGK2 complex in nanodisc (lane 1) and detergent solution (lane 2) was analyzed by BN-PAGE and CN-PAGE followed by Coomassie blue staining of the gel. Molecular weight markers: BSA (67/134 kDa); catalase (232 kDa); ferritin (440 kDa). On CN-PAGE, the MalFGK2 complex precipitates as a protein smear at the top of the gel. […] The reported values were derived from 3 independent experiments.
as §1, §2

MalE-MalFGK2 complex = biological target: T2, MalE-MalFGK2 complex (Escherichia coli, UniProt P02916+P0AEX9+P68183+P68187, T177W/T57C); experiment: Maltose affinity of transporter-bound MalE (fluorescence quenching, competitive fit and equilibrium titration); assay type: binding, E. coli; details: sugar 1 mM added to preformed complex, AMP-PNP
T2 construct: made in house; host or cells: E. coli BL21
T2 sequence (P68187 whole entry): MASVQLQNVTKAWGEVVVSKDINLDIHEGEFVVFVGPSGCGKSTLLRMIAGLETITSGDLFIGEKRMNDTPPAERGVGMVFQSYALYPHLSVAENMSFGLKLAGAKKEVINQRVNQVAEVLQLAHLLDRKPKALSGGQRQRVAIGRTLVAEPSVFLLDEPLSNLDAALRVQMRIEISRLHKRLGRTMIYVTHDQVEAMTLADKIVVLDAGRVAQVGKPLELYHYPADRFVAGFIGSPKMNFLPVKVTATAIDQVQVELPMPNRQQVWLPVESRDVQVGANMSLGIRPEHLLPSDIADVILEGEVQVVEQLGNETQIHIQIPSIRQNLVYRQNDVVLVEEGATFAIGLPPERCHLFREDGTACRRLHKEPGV
T2 sequence (P68183 whole entry): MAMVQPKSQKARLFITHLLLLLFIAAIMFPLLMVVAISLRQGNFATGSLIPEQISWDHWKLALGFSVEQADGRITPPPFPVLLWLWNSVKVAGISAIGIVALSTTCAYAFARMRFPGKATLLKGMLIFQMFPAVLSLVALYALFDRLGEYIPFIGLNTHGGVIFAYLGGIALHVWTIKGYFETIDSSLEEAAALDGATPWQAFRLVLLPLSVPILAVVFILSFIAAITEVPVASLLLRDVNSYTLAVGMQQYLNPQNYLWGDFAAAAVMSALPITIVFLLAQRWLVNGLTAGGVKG
T2 sequence (P02916 whole entry T177W): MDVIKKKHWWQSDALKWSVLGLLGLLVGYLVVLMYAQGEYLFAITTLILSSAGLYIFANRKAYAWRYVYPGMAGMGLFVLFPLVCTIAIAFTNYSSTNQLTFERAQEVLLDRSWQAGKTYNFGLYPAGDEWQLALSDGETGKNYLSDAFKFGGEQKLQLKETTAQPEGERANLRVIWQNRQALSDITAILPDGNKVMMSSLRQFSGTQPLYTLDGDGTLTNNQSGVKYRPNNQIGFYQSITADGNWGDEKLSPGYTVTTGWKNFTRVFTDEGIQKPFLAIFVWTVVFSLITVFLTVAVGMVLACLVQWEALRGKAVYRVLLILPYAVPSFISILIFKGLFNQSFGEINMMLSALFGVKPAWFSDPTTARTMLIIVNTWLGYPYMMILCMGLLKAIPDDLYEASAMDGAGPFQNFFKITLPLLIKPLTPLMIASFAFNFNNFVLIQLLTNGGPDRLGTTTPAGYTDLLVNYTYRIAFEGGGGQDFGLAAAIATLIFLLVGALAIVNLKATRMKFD
Description: After incubation (10 min, 37°C), samples were analyzed by CN-PAGE and (A) autoradiography or (B) Coomassie blue staining. […] At the indicated time (arrow), 1 mM maltooligosaccharides were added to the reaction mixture. […] After incubation (10 min, 37°C), samples were analyzed by CN-PAGE and autoradiography.
Fluorescence was recorded on a Cary Eclipse spectrofluorometer at 25°C. […] Excitation and emission wavelength were 280 nm and 350 nm, respectively (10 nm slit widths). […] The fluorescence emission was monitored over time and the signal was allowed to equilibrate after each addition for 180 s.
Competitive one-site ligand binding. […] The data (Fig. 2F, red curve) were fitted to a competitive one-site binding equation, defined as: [picture]

HisQM = system: HisQM; design: method as in PMID 8662800; details: cited from earlier work
BtuCD = details: cited from earlier work
[3] = read-out: Kd of BtuF for its ligand; cited from earlier work

T1 sequence (P68187 whole entry): as the sequence (P68187 whole entry) above
T1 sequence (P68183 whole entry): as the sequence (P68183 whole entry) above
T1 sequence (P02916 whole entry): as the sequence (P02916 whole entry T177W) above, with W177T counted along it

OC[C@H]1O[C@H](O[C@H]2[C@H](O)[C@@H](O)C(O)O[C@@H]2CO)[C@H](O)[C@@H](O)[C@@H]1O (mixture of isomers) [maltose]
effect of maltose on binding of MalE to MalFGK2 on native-PAGE (Nd-MalFGK2 [1]): significantly reduced | effect of maltose on MalE-stimulated ATPase activity (Nd-MalFGK2 [2]; in disc and in detergent, maltose 1 mM, MalE 2 µM): significant inhibition of the ATPase activity | effect of maltose alone on basal ATPase activity (Nd-MalFGK2 [2]; no MalE): did not effect the basal ATPase activity | dissociation of MalE from the transporter in nanodiscs (MalE-MalFGK2 complex): rapid loss of fluorescence quenching

B1: HisJ: binding protein of histidine transport, binds HisQM (protein, UniProt P0AEU0 23-260, looked up)
Histidine-binding periplasmic …: AIPQNIRIGTDPTYAPFESKNSQGELVGFDIDLAKELCKRINTQCTFVENPLDALIPSLKAKKIDAIMSSLSITEKRQQEIAFTDKLYAADSRLVVAKNSDIQPTVESLKGKRVGVLQGTTQETFGNEHWAPKGIEIVSYQGQDNIYSDLTAGRIDAAFQDEVAASEGFLKQPVGKDYKFGGPSVKDEKLFGVGTGMGLRKEDNELREALNKAFAEMRADGTYEKLAKKYFDFDVYGG
reduction of binding of HisJ to HisQM by saturating histidine (HisQM): 3 fold

B2: BtuF: substrate binding protein of the vitamin B12 transporter (protein, UniProt P37028 23-266, looked up)
Vitamin B12-binding protein: APRVITLSPANTELAFAAGITPVGVSSYSDYPPQAQKIEQVSTWQGMNLERIVALKPDLVIAWRGGNAERQVDQLASLGIKVMWVDATSIEQIANALRQLAPWSPQPDKAEQAAQSLLDQYAQLKAQYADKPKKRVFLQFGINPPFTSGKESIQNQVLEVCGGENIFKDSRVPWPQVSREQVLARSPQAIVITGGPDQIPKIKQYWGEQLKIPVIPLTSDWFERASPRIILAAQQLCNALSQVD
reduction of the BtuF-BtuCD interaction by saturating vitamin B12 (BtuCD): ~10^5 fold | Kd [3]: ~15 nM
